Data taken from patent US9850276B2, “Bidentate-binding modulators of LRRK2 and JNK kinases” (THE SCRIPPS RESEARCH INSTITUTE, priority 2013, dated 2017).
Several values for one entry are separate records, joined by “and”; a condition that tells them apart may be missing. Equal values may be shown once. Read-outs that look alike come from different tables or passages of the source. Where a SMILES comes first, the peptide text is derived from it. The star is where a group is joined. X1 = O=C(NCCCCN*)c1ccc(-c2n[nH]c3ccccc23)cc1; X2 = O=C(NCCCN*)c1ccc(-c2n[nH]c3ccccc23)cc1

Key:
JNK3 39-422 = biological target: T1, JNK3 39-422 (Homo sapiens, UniProt P53779); test: JIP FP displacement assay (TAMRA-JIP-11-mer peptide, fluorescence polarization); type: binding; conditions: 2-3 determinations; * n = 2-4
T1 construct: with JNK3 39-422 and measuring fluorescence polarization (FP) changes
T1 sequence (P53779 39-422 isoform P53779-2): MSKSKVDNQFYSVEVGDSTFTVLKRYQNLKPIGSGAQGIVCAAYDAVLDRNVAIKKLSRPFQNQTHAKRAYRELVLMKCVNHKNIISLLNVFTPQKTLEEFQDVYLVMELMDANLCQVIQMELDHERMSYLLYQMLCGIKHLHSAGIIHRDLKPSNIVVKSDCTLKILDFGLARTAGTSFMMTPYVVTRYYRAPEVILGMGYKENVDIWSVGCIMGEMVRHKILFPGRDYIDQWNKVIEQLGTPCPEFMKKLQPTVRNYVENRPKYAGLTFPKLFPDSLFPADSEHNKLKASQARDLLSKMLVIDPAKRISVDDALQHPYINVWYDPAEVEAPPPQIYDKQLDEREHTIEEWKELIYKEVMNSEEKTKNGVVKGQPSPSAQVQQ
From the text: The biochemical assay for JIP displacement is centered on utilizing a TAMRA-JIP-11-mer peptide (TAMRA-RPKRPTTLNLF) with JNK3 39-422 and measuring fluorescence polarization (FP) changes in the presence and absence of small molecule inhibitors. This assay has been established in 96-well and 384-well format in our labs. Unlabeled JIP-peptide (RPKRPTTLNLF, SEQ ID:1) and compound 2 were used as positive controls.

JNK3 = JNK3 (Homo sapiens, UniProt P53779); test: JNK3 enzyme activity assay; type: biochemical; conditions: 2-3 determinations; SP600125 from 10 measurements; * n = 2-4
JNK3, sequence (P53779 1-422 isoform P53779-2): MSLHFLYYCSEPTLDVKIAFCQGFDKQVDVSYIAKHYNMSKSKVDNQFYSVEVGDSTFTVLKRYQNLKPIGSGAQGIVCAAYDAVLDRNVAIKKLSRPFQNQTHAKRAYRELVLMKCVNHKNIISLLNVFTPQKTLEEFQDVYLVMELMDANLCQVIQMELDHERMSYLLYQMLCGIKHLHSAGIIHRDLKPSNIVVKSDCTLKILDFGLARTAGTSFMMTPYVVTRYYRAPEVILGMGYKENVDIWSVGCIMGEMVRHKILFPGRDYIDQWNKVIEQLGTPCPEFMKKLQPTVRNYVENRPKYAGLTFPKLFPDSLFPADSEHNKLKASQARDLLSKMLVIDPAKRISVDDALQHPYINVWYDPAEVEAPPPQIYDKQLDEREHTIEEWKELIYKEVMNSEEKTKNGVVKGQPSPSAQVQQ

[1] = system: c-jun phosphorylation in H9C2 cardiomyocyte cells; test: In-cell Western detection of c-Jun phosphorylation; type: cell-based; conditions: for IC50: n = 4, read-out: Cell-based p-c-Jun inhibition (IC50)
Description: The IC50 was calculated to be 2.8±0.5 μM. Standard error is given.
(§1) To analyze the cell activity of compound 6 and its analogs an In-cell Western detection assay was set up where phosphorylation of c-Jun was monitored. […] This finding was corroborated by Western blot analysis in H9C2 and N2a cells (FIG. 7). Considering the reasonably high biochemical kinase selectivity (coupled with its low μM cell potency), compound 6 is believed to be a good in vitro probe molecule for studying the biology and the signal pathways related to JNK/LRRK2 (and mutant LRRK2s).
Table 2, above, presents the inhibition of c-Jun phosphorylation in H9c2 cells for six JNK bidentate inhibitors, compounds 5, 6, 9, 10, 12, and 13.

wild-type LRRK2 = wild-type LRRK2 (Homo sapiens, UniProt Q5S007); test: LRRK2 enzyme assay (titration); type: biochemical
wild-type LRRK2, sequence (Q5S007 whole entry): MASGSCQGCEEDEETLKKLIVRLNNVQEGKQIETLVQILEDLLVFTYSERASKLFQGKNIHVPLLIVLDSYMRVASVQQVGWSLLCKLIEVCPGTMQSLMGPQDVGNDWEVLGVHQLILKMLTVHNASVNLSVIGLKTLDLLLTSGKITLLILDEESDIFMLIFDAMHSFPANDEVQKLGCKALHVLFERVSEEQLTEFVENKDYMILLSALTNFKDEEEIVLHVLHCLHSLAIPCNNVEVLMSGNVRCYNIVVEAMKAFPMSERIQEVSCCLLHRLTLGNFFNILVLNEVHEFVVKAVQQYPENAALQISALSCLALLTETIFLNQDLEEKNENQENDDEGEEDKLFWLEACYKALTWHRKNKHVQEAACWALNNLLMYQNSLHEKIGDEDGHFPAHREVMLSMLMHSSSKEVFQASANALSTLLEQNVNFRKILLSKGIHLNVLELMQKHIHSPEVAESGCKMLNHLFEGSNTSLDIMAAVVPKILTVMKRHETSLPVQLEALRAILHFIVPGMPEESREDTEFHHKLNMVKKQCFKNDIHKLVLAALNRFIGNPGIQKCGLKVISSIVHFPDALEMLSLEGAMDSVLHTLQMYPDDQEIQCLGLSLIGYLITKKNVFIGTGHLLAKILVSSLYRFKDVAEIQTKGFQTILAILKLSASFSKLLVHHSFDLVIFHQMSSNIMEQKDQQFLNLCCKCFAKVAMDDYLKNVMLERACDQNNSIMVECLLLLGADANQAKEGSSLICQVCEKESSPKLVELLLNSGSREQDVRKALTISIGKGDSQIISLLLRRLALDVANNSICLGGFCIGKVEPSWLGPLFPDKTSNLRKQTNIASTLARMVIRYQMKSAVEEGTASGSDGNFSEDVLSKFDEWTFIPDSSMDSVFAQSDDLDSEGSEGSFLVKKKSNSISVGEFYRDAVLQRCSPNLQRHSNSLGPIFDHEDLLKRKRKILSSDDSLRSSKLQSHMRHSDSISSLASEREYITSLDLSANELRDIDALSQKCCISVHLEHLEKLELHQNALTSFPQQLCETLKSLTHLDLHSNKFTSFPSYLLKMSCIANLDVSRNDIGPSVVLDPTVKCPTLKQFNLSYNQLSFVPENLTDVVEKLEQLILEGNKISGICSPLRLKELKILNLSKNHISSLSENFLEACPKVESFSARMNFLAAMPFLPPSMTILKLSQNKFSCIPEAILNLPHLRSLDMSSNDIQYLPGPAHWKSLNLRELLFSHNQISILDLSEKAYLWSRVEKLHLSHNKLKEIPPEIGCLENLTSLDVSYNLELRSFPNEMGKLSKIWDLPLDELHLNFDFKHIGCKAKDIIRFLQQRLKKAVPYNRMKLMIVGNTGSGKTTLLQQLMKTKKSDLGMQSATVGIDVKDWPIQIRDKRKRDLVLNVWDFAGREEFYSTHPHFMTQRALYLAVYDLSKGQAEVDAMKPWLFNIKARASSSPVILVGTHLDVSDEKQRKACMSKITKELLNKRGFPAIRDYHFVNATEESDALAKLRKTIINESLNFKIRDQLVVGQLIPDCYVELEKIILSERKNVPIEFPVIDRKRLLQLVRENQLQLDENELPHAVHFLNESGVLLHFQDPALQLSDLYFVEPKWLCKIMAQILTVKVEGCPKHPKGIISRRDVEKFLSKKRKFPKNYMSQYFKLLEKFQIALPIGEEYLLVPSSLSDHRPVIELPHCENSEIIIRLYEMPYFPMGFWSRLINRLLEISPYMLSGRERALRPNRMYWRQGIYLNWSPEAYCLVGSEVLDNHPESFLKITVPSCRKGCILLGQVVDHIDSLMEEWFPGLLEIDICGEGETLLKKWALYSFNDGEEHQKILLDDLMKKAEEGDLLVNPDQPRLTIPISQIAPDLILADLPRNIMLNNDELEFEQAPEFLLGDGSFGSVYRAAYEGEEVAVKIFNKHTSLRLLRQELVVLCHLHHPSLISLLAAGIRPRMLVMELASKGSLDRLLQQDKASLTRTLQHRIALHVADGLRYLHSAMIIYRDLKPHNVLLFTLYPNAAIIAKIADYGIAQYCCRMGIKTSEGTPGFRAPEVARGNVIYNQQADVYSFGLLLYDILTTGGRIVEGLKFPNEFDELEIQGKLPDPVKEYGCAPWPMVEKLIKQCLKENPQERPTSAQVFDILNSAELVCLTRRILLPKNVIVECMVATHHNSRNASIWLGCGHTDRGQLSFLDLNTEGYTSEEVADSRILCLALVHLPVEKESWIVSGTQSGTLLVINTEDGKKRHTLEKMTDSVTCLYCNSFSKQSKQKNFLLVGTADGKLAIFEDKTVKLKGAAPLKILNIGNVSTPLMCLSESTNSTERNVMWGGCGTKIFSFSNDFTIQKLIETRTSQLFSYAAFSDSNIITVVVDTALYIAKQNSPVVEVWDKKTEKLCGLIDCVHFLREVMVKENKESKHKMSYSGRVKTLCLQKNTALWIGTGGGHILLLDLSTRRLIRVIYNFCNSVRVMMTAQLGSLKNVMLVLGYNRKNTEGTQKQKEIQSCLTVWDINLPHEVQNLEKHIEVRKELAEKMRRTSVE
From the text: (§2) Strong inhibition of LRRK2 by compound 6 was also found.

JNK1 = JNK1 (Homo sapiens, UniProt P45983); test: JNK1 enzyme assay; type: biochemical; conditions: 2-3 determinations; SP600125 from 10 measurements
JNK1, sequence (P45983 whole entry, the tested form may be a part): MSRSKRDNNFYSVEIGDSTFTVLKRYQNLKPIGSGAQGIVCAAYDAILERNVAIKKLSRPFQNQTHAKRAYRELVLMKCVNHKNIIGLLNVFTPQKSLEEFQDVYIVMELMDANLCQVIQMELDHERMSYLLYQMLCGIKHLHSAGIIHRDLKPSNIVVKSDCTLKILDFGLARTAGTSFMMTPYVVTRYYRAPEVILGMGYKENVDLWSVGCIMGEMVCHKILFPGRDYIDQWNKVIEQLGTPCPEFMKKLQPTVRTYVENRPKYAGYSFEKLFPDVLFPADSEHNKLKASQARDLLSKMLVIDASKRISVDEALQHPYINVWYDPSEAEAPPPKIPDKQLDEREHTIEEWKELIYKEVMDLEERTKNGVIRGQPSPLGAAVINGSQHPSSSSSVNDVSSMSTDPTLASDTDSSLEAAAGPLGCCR

[2] = system: infarct size in rat hearts; test: I/R MI rat model, 30 minutes ischemia and 24 hours reperfusion; type: in vivo; conditions: 40 mg/kg 3-aminobenzamide; p=0.048
Description: The in vivo efficacy of SR-3306 in anesthetized rats after 30 minutes ischemia and 24 hours reperfusion was evaluated.

LRRK2 = LRRK2 (Homo sapiens, UniProt Q5S007); test: Enzyme inhibition profiling, panel of 21 kinases; type: biochemical; conditions: 10 μM inhibitor concentration
LRRK2, sequence (Q5S007 whole entry): as the sequence (Q5S007 whole entry) above

96 kinases = test: Ambit binding screen; conditions: 10 μM
Description: To augment this we screened an additional 96 kinases at 10 μM in the Ambit binding screen to get a broader sense for the selectivity of this compound. […] Since minimal SAR optimizations have been made on this probe molecule it is believed that high selectivity for this class of inhibitors could easily be achieved by exploiting the bidentate binding character of this class.

[3] = system: c-jun phosphorylation in H9C2 and N2a cells; test: Western blot analysis of c-jun phosphorylation; type: cell-based
From the text: as §1

LRRK2-G2019S = LRRK2-G2019S (Homo sapiens, UniProt Q5S007, G2019S); test: LRRK2-G2019S enzyme assay (titration); type: biochemical
LRRK2-G2019S, sequence (Q5S007 whole entry G2019S): as the sequence (Q5S007 whole entry) above, with G2019S counted along it
From the text: as §2

JNK3α1 = JNK3α1 (Homo sapiens, UniProt P53779); test: ATP competitive binding / mechanism of inhibition studies; type: biochemical; conditions: eight concentrations of compound; p<0.05
JNK3α1, sequence (P53779 1-422 isoform P53779-2): as the sequence (P53779 1-422 isoform P53779-2) above
From the text: (A) Non-linear least squares fitting of the data using an equation for competitive inhibition at eight concentrations of compound 6. (B) Double reciprocal plots and linear regression of the data shown in A.
The detection method in the JNK3 enzyme assay allows for the detection of a compound that inhibits by a variety of mechanisms including: substrate-site binding, allosteric site binding, and ATP-competitive binding. […] However, if the inhibition of kinase activity by 6 was only through substrate site binding, its IC50 value in JNK3 activity assay should be similar to that in JIP displacement assay. […] One possible interaction besides JIP site binding was ATP hinge binding because the head indazole moiety is a well-known hinge binder.

[4] = system: SHSY5Y cells transfected with LRRK2:G2019S; test: LRRK2:G2019S-induced decrease in mitochondrial membrane potential; type: cell-based, human; conditions: 10 μM compound
From the text: (§3) FIGS. 5A, 5B, and 5C, depict the results of assays to determine the protection of LRRK2:G2019S-induced mitochondrial dysfunction and cell death by compound 6. Significance between LRRK2:WT and LRRK2:G2019S are indicated by a single asterisk (p<0.05) (*), while differences between cells expressing LRRK2:G2019S and compound 6 treated cells expressing LRRK2:G2019S are indicated by a double asterisk (p<0.05) (**). Error bars denote standard deviation.
(§4) We next tested if compound 6 was potent in cell-based functional assays that measured reactive oxygen species (ROS) generation, mitochondrial membrane potential (MMP), and cell viability. We had previously shown that JNK inhibition had significant effects on all of these mitochondrial functional parameters in HeLa cells. FIG. 5 presents the effects that compound 6 had on all of these measures in the human dopaminergic SHSY5Y cell line. […] Finally, LRRK2:G2019S-induced cell loss was measured showing ˜50% less viable cells (FIG. 5C). In the presence of 10 μM compound 6, cell viability returned to >95% (p<0.05).

JNKs = test: Enzyme inhibition profiling, panel of 21 kinases; type: biochemical; conditions: 10 μM inhibitor concentration
CLK1 = CLK1 (Homo sapiens, UniProt P49759); test: Enzyme inhibition profiling, panel of 21 kinases; type: biochemical
CLK1, sequence (P49759 whole entry): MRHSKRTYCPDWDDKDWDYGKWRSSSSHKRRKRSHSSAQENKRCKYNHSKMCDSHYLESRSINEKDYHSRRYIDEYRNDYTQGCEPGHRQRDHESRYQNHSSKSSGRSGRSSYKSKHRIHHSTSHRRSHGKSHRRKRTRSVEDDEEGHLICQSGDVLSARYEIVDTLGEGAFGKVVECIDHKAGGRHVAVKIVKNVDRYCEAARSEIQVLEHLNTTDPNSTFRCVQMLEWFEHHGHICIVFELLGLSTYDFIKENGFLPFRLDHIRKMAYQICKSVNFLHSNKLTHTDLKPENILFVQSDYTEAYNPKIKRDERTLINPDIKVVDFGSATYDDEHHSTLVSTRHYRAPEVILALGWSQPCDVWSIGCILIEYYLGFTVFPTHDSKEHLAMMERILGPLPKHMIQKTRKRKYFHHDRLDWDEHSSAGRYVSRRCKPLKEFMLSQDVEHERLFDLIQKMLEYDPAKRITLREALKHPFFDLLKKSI

[5] = system: SHSY5Y cells transfected with LRRK2:G2019S; test: LRRK2:G2019S-induced cell loss (cell viability); type: cell-based; conditions: Homo sapiens, SH-SY5Y; 10 μM compound; p<0.05
From the text: as §3, §4

[6] = system: SHSY5Y cells transfected with LRRK2:G2019S; test: LRRK2:G2019S-induced ROS generation (Mitosox fluorescence); type: cell-based, human; conditions: 1 μM or 10 μM compound; p<0.05
From the text: as §3, §4

[7] = Rattus norvegicus, H9c2, H9c2 cells

Compound	IC50 (JNK3 39-422)	IC50 (JNK3)	IC50 [1, 7] [µM]	IC50 (JNK1) [µM]	also measured
CC(C)CN(CC(=O)NCCCCNC(=O)c1ccc(-c2n[nH]c3ccccc23)cc1)C(=O)c1ccc2c(c1)OCCO2 [Compound 10]	0.363 ± 0.272 µM	0.065 µM	~1	–	IC50 ([1]; H9c2 cells): 1.4 ± 0.34 µM; IC50 (wild-type LRRK2; LRRK2 form not stated, only hit in profiling against 18 kinases at 10 μM, read-out: LRRK2 IC50): 0.08 µM
CC(C)CN(CCCCCCNC(=O)c1ccc(-c2n[nH]c3ccccc23)cc1)C(=O)c1ccc2c(c1)OCCO2 [Compound 11]	0.781 ± 0.007 µM	0.086 ± 0.037 µM	–	–	–
COc1ccc2c(c1)CC(C(=O)N(CC(=O)NCCCCNC(=O)c1ccc(-c3n[nH]c4ccccc34)cc1)CC(C)C)CO2 (centres unmarked) [Compound 9]	0.3 ± 0.187 µM	0.246 ± 0.227 µM	80.4 ± 41.4	–	–
COc1ccc2c(c1)CC(C(=O)N[C@@H](C)C(=O)N(CC(=O)NCCCCCCNC(=O)c1ccc(-c3n[nH]c4ccccc34)cc1)CC(C)C)CO2 (stereo partly drawn) [Compound 7, N—((S)-1-((2-((6-(4-(1H-indazol-3-yl)benzamido)hexyl)amino)-2-oxoethyl)(isobutyl)amino)-1-oxopropan-2-yl)-6-methoxychroman-3-carboxamide]	1.05 µM	0.127 ± 0.0303 µM	–	0.154 ± 0.0371	–
CC(C)CN(CC(=O)NCCCCCCNC(=O)c1ccc(-c2n[nH]c3ccccc23)cc1)C(=O)CNC(=O)C1COc2ccccc2O1 (centres unmarked) [Compound 5, N-(2-((2-((6-(4-(1H-indazol-3-yl)benzamido)hexyl)amino)-2-oxoethyl)(isobutyl)amino)-2-oxoethyl)-2,3-dihydrobenzo[b][1,4]dioxine-2-carboxamide]	0.363 µM	0.0634 ± 0.0104 µM	37.4 ± 22.3	0.164 ± 0.0217	–
COc1ccc2c(c1)CC(C(=O)NCC(=O)N(CC(=O)NCCCCCCNC(=O)c1ccc3[nH]ncc3c1)CC(C)C)CO2 (centres unmarked) [Compound 8, N-(6-(2-(N-isobutyl-2-(6-methoxychroman-3-carboxamido)acetamido)acetamido)hexyl)-1H-indazole-5-carboxamide]	–	3.15 µM	–	–	–
CC(C)C[C@H](NC(=O)[C@H](CC(N)=O)NC(=O)[C@@H](N)CC(C)C)C(=O)NCC(=O)NCC(=O)NCCCNC(=O)c1ccc(-c2n[nH]c3ccccc23)cc1 [Compound 2] (H-LNLGG-X2)	0.624 µM	0.136 ± 0.0359 µM	–	–	–
CC(C)CN(CC(=O)NCCCCNC(=O)c1ccc(-c2n[nH]c3ccccc23)cc1)C(=O)CNC(=O)c1cccc(Cl)c1 [Compound 12]	0.52 ± 0.17 µM	0.184 ± 0.038 µM	19.8 ± 7.8	–	–
CC(=O)N[C@@H](CC(C)C)C(=O)N[C@@H](CC(N)=O)C(=O)N[C@@H](CC(C)C)C(=O)NCC(=O)NCCCCNC(=O)c1ccc(-c2n[nH]c3ccccc23)cc1 [Compound 3, (S)—N1-((S)-1-((2-((4-(4-(1H-indazol-3-yl)benzamido)butyl)amino)-2-oxoethyl)amino)-4-methyl-1-oxopentan-2-yl)-2-((S)-2-acetamido-4-methylpentanamido)succinamide] (Ac-LNLG-X1)	0.62 µM	0.157 ± 0.162 µM	–	0.318 ± 0.0119	–
NC(=O)c1cccc(N)c1 [3-aminobenzamide]	–	–	–	–	infarct size (IS) [2]: 26±1.5 % of AAR
COc1ccc2c(c1)CC(C(=O)NCC(=O)N(CC(=O)NCCCCCCNC(=O)c1ccc(-c3n[nH]c4ccccc34)cc1)CC(C)C)CO2 (centres unmarked) [Compound 6, N-(2-((2-((6-(4-(1H-indazol-3-yl)benzamido)hexyl)amino)-2-oxoethyl)(isobutyl)amino)-2-oxoethyl)-6-methoxychroman-3-carboxamide]	0.336 µM and ~0.336 µM	0.012 µM and 0.0116 µM	2.8 ± 0.5	0.109 ± 0.0061	inhibition at 10 µM (LRRK2): 94%; number of the 96 kinases with greater than 90% binding (96 kinases): six; share of kinases inhibited (96 kinases): ~5%; c-jun phosphorylation by Western blot [3]: inhibition of the c-jun phorphorylation; IC50 (LRRK2-G2019S): 0.099 µM and ~0.1 µM; mechanism of inhibition versus ATP (JNK3α1): competitive inhibitor of ATP; concentration from which c-Jun phosphorylation began to be inhibited significantly ([1]; H9C2 cells): ~100 nM; IC50 (wild-type LRRK2; read-out: wild-type LRRK2 IC50): 0.118 µM and ~0.1 µM; protection against decrease in MMP [4]: returned MMP dissipation to untreated levels; inhibition of JNKs (JNKs): ~100%; inhibition at 10 µM (CLK1; 10 μM inhibitor concentration): 50%; IC50 (CLK1; inferred from 50% inhibition at 10 μM): ~10 µM; viability at 10 µM [5]: > 95%; ROS levels [6]: reduced the ROS levels in a statistically significant manner
CC(C)CN(CC(=O)NCCCCNC(=O)c1ccc(-c2n[nH]c3ccccc23)cc1)CC(C)C [Compound 13]	1.73 ± 0.635 µM	0.374 ± 0.227 µM	9.6 ± 3	–	–
CC(C)CN(CC(=O)NCCCCCCNC(=O)c1ccc(-c2n[nH]c3ccccc23)cc1)C(=O)CNC(=O)c1ccc2c(c1)OCCO2 [Compound 4, N-(2-((2-((6-(4-(1H-indazol-3-yl)benzamido)hexyl)amino)-2-oxoethyl)(isobutyl)amino)-2-oxoethyl)-2,3-dihydrobenzo[b][1,4]dioxine-6-carboxamide]	0.907 µM	0.147 ± 0.0516 µM	–	0.685 ± 0.121	–
CC(=O)N[C@@H](CC(C)C)C(=O)N[C@@H](CC(N)=O)C(=O)N[C@@H](CC(C)C)C(=O)NCC(=O)NCC(=O)NCCCNC(=O)c1ccc(-c2n[nH]c3ccccc23)cc1 [Compound 1] (Ac-LNLGG-X2)	0.76 µM	0.0378 ± 0.0118 µM	–	–	–
